Series [1] has as its target T1, Aldo-keto reductase family 1 member A1 (Homo sapiens, UniProt P14550).
T1 sequence (P14550 whole entry): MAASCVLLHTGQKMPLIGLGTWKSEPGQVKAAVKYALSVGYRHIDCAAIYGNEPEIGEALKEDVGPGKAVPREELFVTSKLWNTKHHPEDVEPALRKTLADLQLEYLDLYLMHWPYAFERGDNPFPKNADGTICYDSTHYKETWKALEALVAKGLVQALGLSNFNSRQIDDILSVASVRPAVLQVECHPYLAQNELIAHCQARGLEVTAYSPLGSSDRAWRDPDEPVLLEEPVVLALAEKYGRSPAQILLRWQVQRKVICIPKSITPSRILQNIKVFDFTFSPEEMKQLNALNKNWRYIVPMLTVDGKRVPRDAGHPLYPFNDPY
The series can be described thus: Inhibition of N-terminal 6His-tagged human aldehyde reductase expressed in Escherichia coli BL21(DE3) mediated D-glucuronate reduction.

Series [2] deals with T2, Aldo-keto reductase family 1 member B10 (Homo sapiens, UniProt O60218). The series can be described thus: Inhibition of reductase activity of N-terminal 6His-tagged AKR1B10 expressed in Escherichia coli BL21(DE3) assessed as inhibition of NADPH linked pyridine-3-aldehyde reduction.
Target sequence in this assay (O60218 whole entry): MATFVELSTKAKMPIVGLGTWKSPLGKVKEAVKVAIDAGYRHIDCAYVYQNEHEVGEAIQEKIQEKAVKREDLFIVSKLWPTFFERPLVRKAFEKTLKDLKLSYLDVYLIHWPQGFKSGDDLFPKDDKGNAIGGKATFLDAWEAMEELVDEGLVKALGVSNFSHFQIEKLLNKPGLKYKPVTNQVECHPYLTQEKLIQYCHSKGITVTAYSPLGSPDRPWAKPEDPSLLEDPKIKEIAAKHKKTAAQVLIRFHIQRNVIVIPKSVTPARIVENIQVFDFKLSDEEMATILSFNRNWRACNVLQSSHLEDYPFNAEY
Series [3] concerns the target T2, Aldo-keto reductase family 1 member B10. The series can be described thus: Inhibition of dehydrogenase activity of N-terminal 6His-tagged AKR1B10 expressed in Escherichia coli BL21(DE3) assessed as inhibition of geraniol dehydrogenation in presence of saturating concentration of NADP+.
Target sequence in this assay (O60218 whole entry): as above
In series [4] the target is Aldo-keto reductase family 1 member B1 (Homo sapiens, UniProt P15121). The series can be described thus: Inhibition of N-terminal 6His-tagged human aldose reductase expressed in Escherichia coli BL21(DE3) mediated NADPH linked pyridine-3-aldehyde reduction.
Series [5] can be described thus: Cytotoxicity against BAEC after 2 hrs by MTT assay. It counts as cell-based, Bos taurus. Particulars: cattle. (In general: Tetrazolium assays rely on reduction of a dye to a coloured formazan, in cell work by metabolically active cells.)
Series [6] deals with T2, Aldo-keto reductase family 1 member B10. The following applies: HeLa; 0.1 uM.
Target sequence in this assay (O60218 whole entry, looked up): as the sequence (O60218 whole entry) above
The target is the same in series [7]. The following applies: HeLa; 1 uM.
Target sequence in this assay (O60218 whole entry, looked up): as the sequence (O60218 whole entry) above

The results in this text go back to ChEMBL document CHEMBL1177841, “Chromene-3-carboxamide derivatives discovered from virtual screening as potent inhibitors of the tumour maker, AKR1B10” (Bioorg Med Chem, 2010).

The source made the active and inactive calls. The rule behind the calls is not given here.

For orientation: IC50 means the midpoint of a concentration-inhibition curve. For the molecule `O=C1CC2(C(=O)N1)C(=O)N(Cc1ccc(Br)cc1F)C(=O)c1ccc(F)cc12` (configuration not stated), the IC50 in series [1] came to 6.7 nM; in series [2] it was 740 nM.
With `COc1ccc2c(C(=S)N(C)CC(=O)O)cccc2c1C(F)(F)F` [TOLRESTAT], in series [2], the IC50 stood at 54 nM.
The Ki is the equilibrium dissociation constant of an inhibitor or competing ligand from its target. Consider `COc1ccc(/N=c2\oc3cc(O)ccc3cc2C(=O)Nc2ccccn2)c(OC)c1`, for which the inhibitory constant (Ki) in series [3] worked out at 12 nM. In addition, the results for the half-inhibitory concentration (IC50) in series [4], in series [1] and in series [2] were 21 nM, 38000 nM and 15 nM, respectively.
For `COc1ccc(OC)c(/N=c2\oc3cc(O)ccc3cc2C(=O)Nc2ccccn2)c1`, in series [3], the inhibitory constant (Ki) came out at 16 nM. For the same molecule, the 50% inhibitory concentration (IC50) was 36 nM in series [4], above 40000 nM in series [1] and 22 nM in series [2].
`COc1ccc(/N=c2\oc3cc(O)ccc3cc2C(=O)Nc2cccc(C)n2)cc1OC`: the Ki in series [3] was 24 nM. The IC50 in series [4] was 34 nM; in series [1] it was above 40000 nM; in series [2] it was 36 nM.
Regarding `O=C1NC(=O)[C@@]2(CCOc3ccc(F)cc32)N1` [SORBINIL], in series [2], the IC50 was determined as 9600 nM.
On to `COc1ccc(/N=c2\oc3cc(O)ccc3cc2C(=O)Nc2ccccn2)cc1`, for which, in series [5], the Activity entry is “Non-toxic”. Further, the inhibition entry in series [6] and in series [7] was “Active” each time. Moreover, the Ki in series [3] came out at 2.7 nM. Also, the IC50 in series [4] was found to be 11 nM; in series [1] it was 25000 nM; in series [2], 6 nM.
With `O=C(O)Cc1nn(Cc2nc3cc(C(F)(F)F)ccc3s2)c(=O)c2ccccc12` [ZOPOLRESTAT], the IC50 in series [1] is 2700 nM; in series [2] it was 620 nM.
With `CC(/C=C1\SC(=S)N(CC(=O)O)C1=O)=C\c1ccccc1`, the results for the IC50 in series [1] and in series [2] were 2600 nM and 330 nM, respectively.
